The values that follow come from patent EP1738741A2, “Use of benzylidene-1,3-thiazolidine-2,4-diones for favouring and/or inducing and/or stimulating the pigmentation of keratinic materials and/or for limiting their depigmentation and/or their bleaching” (L'ORÉAL, priority 2005, dated 2007).

Where two headings read alike, the source gives them in different places.

The test system of experiment [1] is activité tyrosinase de mélanocytes humains normaux. Description: Tyrosinase activity of cultured normal human melanocytes after 72 h treatment (L-Dopa substrate, absorbance 450 nm). To be noted: Melanocyte, read-out: Stimulation de l'activité tyrosinase. Type of experiment: cell-based. On the procedure: Des mélanocytes épidermiques humains normaux sont cultivés (9ème passage) dans le milieu "mélanocytes growth medium M2" additionné Des compléments Promocell C24300. De pénicilline 50 UI/ml et de streptomycine 50 µg/ml (Invitrogen) dans des conditions classiques de température (37°C) sous 5% de CO2.
Le composé 5 est solubilisé dans de l'éthanol absolu (PGE2) ou dans du DMSO (inhibiteurs de 15-PGDH). Le titre final des solutions préparées est de 10 mM. Les concentrations finales testées varient de 0.1 à 10 µM (PGE2) et 1 à 10 µM (inhibiteurs de 15-PGDH).
Les essais réalisés consistent à mesurer l'effet d'inhibiteur de 15-PGDH seul ou associé à PGE2* sur l'activité globale de la tyrosinase. * PGE2 est un modulateur de pigmentation désactivé par l'enzyme 15-PGDH.
Les mélanocytes sont cultivés en plaques 96 puits jusqu'à confluence (conditions de culture décrites en a), puis le surnageant de chacun des puits est éliminé et remplacé par du milieu contenant les composés à évaluer.
Soit donc (en triplicate) l' inhibiteur de 15-PGDH seul à 1 µM et 10 µM ou pour chacune de ces premières conditions en présence de 0.1 µM, 1 µM ou 10 µM de PGE2.
Dans ces différentes conditions les cultures sont maintenues 72h00, les surnageants sont ensuite éliminés, les tapis cellulaires sont lavés avec un tampon phosphate (pH=7.2). Les cellules sont lysées avec un tampon phosphate pH=7.2 contenant 1% de triton X100.
L'activité tyrosinase de chacun des lysats est ensuite estimée contre une gamme tyrosinase de champignon (Sigma T7755).
La méthodologie mise en oeuvre utilise la L-Dopa comme substrat de réaction (45 min à 37°C), la formation de mélanine est appréciée par mesure de l'absorbance à 450 nm.
Dans ce test, deux références sont également évaluée: l'acide kojique (un inhibiteur de tyrosinase introduite à 0.1% dans le milieu de culture) et l'isobutyle méthyle xanthine (IBMX) un inhibiteur de phosphodiesterase qui limitant le catabolisme de l'AMPc contribue à l'augmentation de l'activité tyrosinase globale telle qu'appréciée dans ce test.

Another experiment has as its target T1, 15-PGDH de type 1 (Homo sapiens, UniProt P15428).
T1 construct: made in house
T1 sequence (P15428 1-266): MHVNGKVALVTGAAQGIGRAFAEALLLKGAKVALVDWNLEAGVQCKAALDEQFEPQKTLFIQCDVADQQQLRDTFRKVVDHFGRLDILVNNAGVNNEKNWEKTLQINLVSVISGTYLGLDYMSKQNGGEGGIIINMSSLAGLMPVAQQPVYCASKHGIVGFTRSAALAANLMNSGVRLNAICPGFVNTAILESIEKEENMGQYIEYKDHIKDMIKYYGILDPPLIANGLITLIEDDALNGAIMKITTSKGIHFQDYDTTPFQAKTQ
As to the kind of experiment: Test on 15-PGDH type 1: spectrophotometric enzyme inhibition at 340 nm (NAD, PGE2 substrate). Type of experiment: biochemical. On the procedure:
L'enzyme 15-PGDH est obtenue comme décrit dans la demande FR 02/05067 déposée au nom de L'Oréal, en suspension dans un milieu adapté à une concentration de 0,3 mg/mL puis bloquée à - 80°C. Pour les besoins du test, cette suspension est décongelée et stockée dans de la glace.
Par ailleurs on prépare un tampon Tris 100 mM, pH = 7,4, contenant 0,1 mM de dithiothréitol (D5545, Sigma-Aldrich, L'isle D'Abeau Chesne, BP 701, 38297, Saint Quentin Fallavier), 1,5 mM de β-NAD (N6522, Sigma-Aldrich, L'isle D'Abeau Chesne, BP 701, 38297, Saint Quentin Fallavier), 50 µM de Prostaglandine E2 (P4172, Sigma-Aldrich, L'isle D'Abeau Chesne, BP 701, 38297, Saint Quentin Fallavier).
Dans la cuve d'un spectrophotomètre (Perkin-Elmer, Lambda 2) thermostaté à 37°C, dont la longueur d'onde de mesure est réglée à 340 nm, sont introduits 0,965 ml de ce tampon (préalablement porté à 37°C). 0,035 mL de suspension enzymatique à 37°C sont introduits dans la cuve concomitamment à l'enregistrement ( correspondant à une augmentation de la densité optique à 340 nm). La vitesse maximale de réaction est relevée.

Regarding `CC(C)(C)c1ccc(Oc2ccccc2/C=C2\SC(=O)NC2=O)cc1` [Composé 4], the activation at 1 µM in experiment [1] was determined as 16%.
In the case of `CCCCC[C@H](O)/C=C/[C@H]1[C@H](O)CC(=O)[C@@H]1C/C=C\CCCC(=O)O` [PGE2, Prostaglandine E2], the activation at 0.1 µM in experiment [1] (PGE2 alone at 0,1 µM) was 3%. Also, the activation at 1 µM in experiment [1] (PGE2 alone at 1 uM) came to 9%. The activation at 10 µM in experiment [1] (PGE2 alone at 10 uM) came to 15%.
Take `O=C1NC(=O)/C(=C/c2ccccc2Oc2ccc(F)cc2)S1` [compound 6]: 100 µM produced 48% inhibition against 15-PGDH de type 1.
The same measure, in the same setting: to `CCN1C(=O)S/C(=C\c2ccccc2Oc2ccc(C(C)(C)C)cc2)C1=O` [compound 13] belongs 23%.
On the same count and under the same terms, in the case of `CC(C)(C)CC(C)(C)c1ccc(Oc2ccccc2/C=C2/SC(=O)NC2=O)cc1` [compound 15] it was 27%; in that of `CC(C)(C)c1ccc(Oc2ccccc2/C=C2\SC(=O)NC2=O)c(C(C)(C)C)c1` [compound 17], 30%.
